Test results from patent publication US20210009542A1 (Calico Life Sciences LLC, priority 2018, published 2021).

Test system: pSTAT5 in CD3+ T cells
Test: pSTAT5 flow cytometry assay in mouse whole blood
Assay type: in vivo
Settings: 300 mg/kg/dose oral BID; day 8 of dosing, 2 hours post 16th dose; 100 ng/mL murine IL-2
Method: Whole blood was drawn into EDTA powder coated tubes by cardiac puncture from mice on day 8 of dosing with indicated PTPN2/1B inhibitor (2 hours after the 16th dose). 100 μL of whole blood were stimulated with 100 ng/mL murine IL-2 (R&D Systems, Minneapolis, Minn., cat #402-ML) for 20 minutes at 37° C., 5% CO2. After stimulation, 1.8 mL of prewarmed BD Phosflow Lyse/Fix Buffer (BD Biosciences, San Jose, Calif.) was added for 20 minutes at 37° C. Cells were washed twice in FACS buffer (Dulbecco's PBS with 0.2% BSA) and incubated for 30 minutes on ice in cold Perm Buffer III (BD Biosciences, San Jose, Calif.). Cells were washed with FACS buffer and resuspended in […] of FACS buffer with antibodies and stained for 3 hours at room temperature with gentle shaking. […] After staining, cells were washed twice with FACS buffer, and the samples were acquired on a BD LSRFortessa™ X20 flow cytometers (BD Biosciences, San Jose, Calif.) and analyzed with FLowJo V10 software (FlowJo, Ashland, Oreg.). The mean fluorescence intensity (MFI) of pSTAT5 as a measure of the amount of phosphorylated STAT5 in the CD3+ T cell population was reported as fold-change of compound treated over vehicle treated animal groups.

SMILES: COc1ccc2cc(O)c(N3CC(=O)NS3(=O)=O)c(F)c2c1 [Compound 124, 5-(1-fluoro-3-hydroxy-7-methoxynaphthalen-2-yl)-1λ^6,2,5-thiadiazolidine-1,1,3-trione]
- pSTAT5 level in CD3+ T cells from IL2 stimulated whole blood [fold increase over vehicle]: 2.3 fold
